Data as given in patent US11185527B2, “Methods and compositions relating to steroid hormone receptor-dependent cancers” (Wayne State University, priority 2017, dated 2021).
Where “and” joins values, the source holds several entries; their conditions need not be identical. Identical values can stand only once.

How the values were obtained:
[1] = Metabolism in pooled human liver microsomes (HLM) with or without NADPH; type: in vitro ADME; details: HLM 0.05 mg/ml, 30 minutes, 37° C.
Procedure: BD UltraPool human liver microsomes (HLM) 150 and the NAPDH regenerating system solution A and B were obtained from Corning Inc. Pooled HLM were used to determine percentage of metabolism of 5,3′-Dihydroxyflavone and 5,3-Dihydroxy-4′-methylflavone. The compounds (20 μM) were co-incubated with HLM (0.05 mg/ml) in the presence or absence of NAPDH for 30 minutes in a 37° C. water bath. At the end of the microsome reaction, the reaction was quenched with 1000 μl ethyl acetate. The mixture was vortexed and centrifuged at 13,000 rpm for 15 minutes, the supernatant was then subjected to high-performance liquid chromatography with tandem mass spectrometry ([…]) analysis.

ELK1 = molecular target: T1, ELK1 (Homo sapiens, UniProt P19419); assay: Surface plasmon resonance, compound binding to immobilized ELK1; details: SPR
T1 construct: His; made in house; host or cells: baculovirus infected Sf9 cells
T1 sequence (P19419 whole entry): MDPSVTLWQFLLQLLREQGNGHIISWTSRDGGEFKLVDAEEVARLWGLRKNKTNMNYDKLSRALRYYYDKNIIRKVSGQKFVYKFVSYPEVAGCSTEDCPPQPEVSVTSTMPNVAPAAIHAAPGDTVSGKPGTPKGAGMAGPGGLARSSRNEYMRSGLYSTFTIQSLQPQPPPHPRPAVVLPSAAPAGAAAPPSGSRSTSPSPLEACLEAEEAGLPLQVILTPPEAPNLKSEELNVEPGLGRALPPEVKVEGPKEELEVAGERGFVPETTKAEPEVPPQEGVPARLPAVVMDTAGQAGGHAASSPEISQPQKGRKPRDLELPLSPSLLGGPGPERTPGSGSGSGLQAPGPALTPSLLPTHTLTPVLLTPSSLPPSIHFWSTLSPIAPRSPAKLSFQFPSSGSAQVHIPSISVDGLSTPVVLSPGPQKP

binding of ER to ELK1 = assay: SPR competition: inhibition of binding of ER (analyte) to immobilized ELK1; details: ER 200 nM, compound 0-32 uM
Procedure: A fixed concentration of ER (200 nM) was combined with 5,3′-Dihydroxyflavone diluted in a series (0, 1, 2,4, 8, 16, and 32 uM).
A fixed concentration of ER (200 nM) was combined with 5,3′-Dihydroxyflavone diluted in a series (0, 1, 2, 4, 8, 16, and 32 uM). […] This explains the ability of the compound to inhibit the estrogen-dependent growth of breast cancer cells, as ELK1 is required for estrogen-dependent growth of breast cancer cells.

[2] = Metabolite identification in serum of treated mice by LC-MS/MS; type: in vivo, mouse; details: 250 mg/kg every other day
From the text: To identify potential metabolites of KCI807 in mice, serum and liver samples collected from the control (untreated) and KCI807-treated mice were subjected to the LC-MS/MS analysis. Sample preparation and chromatographic separation were the same as that described above. Column eluents of the control and drug-treated samples were surveyed using different scan modes including full scan, product scan, and multiple reaction monitoring scan. […] The […] was operated under the optimized condition as for KCI807, and hypothesized theoretical mass transitions for potential metabolites were monitored (see Tables 3 and 4).
If a chromatographic peak monitored at the theoretical transition(s) corresponding to a particular metabolite was identified in the drug-treated samples but not in the control (untreated) samples, this metabolite was identified as a metabolite of KCI807, see FIG. 20.
Serum from mice that were injected with 250 mg/kg of 5,3′-Dihydroxyflavone every other day for two weeks was analyzed to identify potential metabolites by LCMS using hypothesized mass transitions. […]

T47D cells = assay: Breast cancer cell growth, MTT assay; type: cell-based
Procedure: (§1) Twenty four hours after plating the cells, they were treated with the indicated concentrations of the compound.

BT474 cells = assay: Breast cancer cell growth, MTT assay; type: cell-based
Procedure: as §1

MCF-7 cells = assay: Breast cancer cell growth, MTT assay; type: cell-based
Procedure: as §1

[3] = tested on: hormone-independent promoter activation by the splice variant AR-V7; assay: Gal4-ELK1 reporter activation by AR-V7 in transfected HeLa cells; type: cell-based; details: 10 uM or 20 uM
Procedure: FIG. 10 is a graph showing results of co-transfection of HeLa cells with the Gal4-TATA-Luc construct and the Gal4-ELK1 fusion protein expression plasmid. The cells were also co-transfected with either the AR-V7 expression plasmid (pLVX-AR-V7) or the corresponding vector plasmid (pLVX). At the time of transfection with AR-V7, the cells were also treated with KCI807 (10 uM or 20 uM) or with the vehicle control. Promoter activity was measured in terms of reporter luciferase activity. In all panels, the error bars represent standard deviation of experimental triplicates. *P<0.05
Hela Cells were plated in a 24-well plate at a concentration of 75,000 cells/well in antibiotic-free red DMEM. The following day the cells were transfected with a total of 300 ng of plasmid DNA/well using Lipofectamine 2000. The cells were incubated for 24h then lysed using luciferase assay lysis buffer 5X from Promega. The luciferase activity of the cell lysates were measured using firefly substrate from Promega and a luminometer (Lumat LB9501, Berthold, Wildbad, Germany).
The relatively higher concentrations of the compound required for this inhibition is likely because AR-V7 was overexpressed in the assay system.

[4] = male, SCID, mouse, in vivo, ip, 250 mg/kg, 6 h
[5] = tested on: protein level of AR or AR-V7; assay: Western blot of AR in LNCaP, VCaP and 22Rv1 cells; type: cell-based; details: VCaP, 10 μM, 24h
Procedure: Protein lysates were extracted after 24h of treatment and probed using antibodies to AR and GAPDH (loading control).
The treated cells were washed once with phosphate buffered saline (PBS) and then lysed with RIPA buffer (150 mM NaCl, 1% Nonidet P-40, 0.5% sodium deoxycholate, 0.1% SDS, 50 mM Tris of pH 8.0) containing a protease inhibitor cocktail (Pierce, Thermo Fisher Scientific). The cell lysates were then incubated on ice for 40 minutes and vortexed every 10 minutes. Total protein concentrations were estimated using the Bradford Assay (Bio-Rad). Ten micrograms of each protein sample was heated at 95° C. for 5 minutes and resolved by electrophoresis on 8% polyacrylamide-SDS gels and electrophoretically transferred to PVDF membranes (Millipore, Billerica, Mass.). The membranes were then probed overnight at 4° C. with the appropriate primary antibody followed by the appropriate horseradish peroxidase-conjugated secondary antibody. The blots were then developed to visualize the protein bands using the HyGLO

[6] = tested on: 22Rv1 human CRPC xenograft; assay: 22Rv1 CRPC tumor xenograft in male SCID mice, tumor growth; details: KCI807 IP 250-300 mg/kg every other day; enzalutamide PO 50-60 mg/Kg daily; from day 3

## O=c1cc(-c2cccc(O)c2)oc2cccc(O)c12 [KCI807, 5,3′-dihydroxyflavone]
[1]
  compound concentration after HLM incubation, Control (absence of NADPH), replicate: 973 nM and 981 nM and 1006 nM
  compound concentration after HLM incubation, NADPH treated, replicate: 796 nM and 725 nM and 863 nM
  mean compound concentration, Control (absence of NADPH): 986 nM
  mean compound concentration, NADPH treated: 795 nM
[1]; NADPH
  percentage metabolized (%): 19.4%
ELK1
  binding to immobilized ELK1: did not bind
Binding of ER to ELK1
  inhibition of binding of ER to immobilized ELK1: inhibits the binding of ER to ELK1
[2]
  major metabolites / compounds identified in plasma or serum: glucuronidation and other modifications at the 3′ position
[2]; listed as 5,3′-Dihydroxyflavone
  major metabolites / compounds identified in plasma or serum: Unmetabolized compound and a single glucuronide metabolite modified at the 3′-OH position
T47D cells
  growth of T47D cells: growth inhibitory
BT474 cells
  growth of BT474 cells: growth inhibitory
MCF-7 cells
  growth of MCF-7 cells: growth inhibitory
[3]
  inhibition of promoter activation by AR-V7: inhibited
[4]
  plasma level of unmetabolized compound (median), Day 11: 387 nM
  plasma level of unmetabolized compound (median), Day 19: 70 nM
[5]
  protein level of AR or AR-V7: in no case did KCI807 treatment alter the protein level
[6]
  tumor growth inhibition, 22Rv1 xenograft: inhibited
